From ChEMBL document CHEMBL4229446, “Development of Novel Monoamine Oxidase-B (MAO-B) Inhibitors with Reduced Blood-Brain Barrier Permeability for the Potential Management of Noncentral Nervous System (CNS) Diseases” (J Med Chem, 2018) come the findings set out here.

Each structure is given as a SMILES string.

For one assay, the target named is T1, Amine oxidase [flavin-containing] A (Homo sapiens, UniProt P21397).
T1 sequence (P21397 whole entry): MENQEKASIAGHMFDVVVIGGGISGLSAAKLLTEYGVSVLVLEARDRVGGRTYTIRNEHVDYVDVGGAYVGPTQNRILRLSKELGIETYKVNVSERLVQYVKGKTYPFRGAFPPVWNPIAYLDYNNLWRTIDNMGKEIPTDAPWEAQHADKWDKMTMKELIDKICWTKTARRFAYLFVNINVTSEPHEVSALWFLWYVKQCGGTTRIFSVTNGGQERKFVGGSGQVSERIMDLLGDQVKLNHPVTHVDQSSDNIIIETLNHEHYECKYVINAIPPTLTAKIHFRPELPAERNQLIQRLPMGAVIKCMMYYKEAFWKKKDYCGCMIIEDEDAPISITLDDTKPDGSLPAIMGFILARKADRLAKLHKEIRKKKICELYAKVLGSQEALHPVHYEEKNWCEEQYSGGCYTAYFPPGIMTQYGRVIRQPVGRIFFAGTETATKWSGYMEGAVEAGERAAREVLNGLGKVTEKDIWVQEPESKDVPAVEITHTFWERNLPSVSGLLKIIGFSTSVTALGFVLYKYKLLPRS
In words: Inhibition of human recombinant MAO-A expressed in baculovirus infected BTI-TN-5B1-4 insect cells using tyramine as substrate preincubated for 1 hr followed by substrate addition and measured after 30 mins by resazurin dye-based fluorescence assay.
Regarding `C[C@H](Cc1ccc(OCc2cccnc2)cc1)N(C)CC(=O)O`, the IC50 is more than 50 µM.

In the case of `C#CCN(C)[C@H](C)Cc1ccc(OCc2ccccc2)cc1`, the IC50 stood at 0.161 µM.

As for `CN(CC(=O)O)[C@H](CC#N)Cc1ccc(OCc2ccccc2)cc1`, the half-maximal inhibitory concentration (IC50) was more than 50 µM.

On to `C[C@H](Cc1ccc(OCc2cc(Cl)ccc2Cl)cc1)N(C)CC(=O)O`, for which the IC50 was more than 50 µM.

As for `C[C@H](Cc1ccc(OCc2ccccn2)cc1)N(C)CC(=O)O`, the IC50 is more than 50 µM.

Turning to `C[C@H](Cc1ccc(OCc2ccc(Cl)cc2)cc1)N(C)CC(=O)O`, the IC50 was 217 µM.

With `COC(=O)[C@H](Cc1ccc(OCc2cccc(Cl)c2)cc1)N(C)CC(=O)O`, the IC50 was more than 50 µM.

With `C[C@H](Cc1ccc(OCc2cccc(C#N)c2)cc1)N(C)CC(=O)O`, the IC50 was more than 50 µM.

`C[C@H](Cc1ccc(OCc2ccncc2)cc1)N(C)CC(=O)O`: the IC50 was more than 50 µM.

Consider `C[C@H](Cc1ccc(OCc2cccc([N+](=O)[O-])c2)cc1)N(C)CC(=O)O`, for which the 50% inhibitory concentration (IC50) was more than 50 µM.

The next assay has as its target T2, Amine oxidase [flavin-containing] B (Homo sapiens, UniProt P27338).
T2 sequence (P27338 whole entry): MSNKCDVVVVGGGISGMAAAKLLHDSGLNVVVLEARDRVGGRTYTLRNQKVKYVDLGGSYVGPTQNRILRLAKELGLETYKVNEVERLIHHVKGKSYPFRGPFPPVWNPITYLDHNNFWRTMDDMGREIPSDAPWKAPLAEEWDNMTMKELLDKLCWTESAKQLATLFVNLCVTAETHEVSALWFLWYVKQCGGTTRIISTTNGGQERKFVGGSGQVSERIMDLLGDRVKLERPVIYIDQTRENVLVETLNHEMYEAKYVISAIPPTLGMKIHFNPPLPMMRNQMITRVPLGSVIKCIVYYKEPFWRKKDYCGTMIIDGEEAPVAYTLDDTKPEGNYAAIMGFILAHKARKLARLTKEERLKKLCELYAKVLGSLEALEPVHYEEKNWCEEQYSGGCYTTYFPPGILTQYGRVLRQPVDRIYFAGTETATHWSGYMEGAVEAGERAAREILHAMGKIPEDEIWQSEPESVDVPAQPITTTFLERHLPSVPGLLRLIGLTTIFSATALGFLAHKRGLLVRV
In words: Inhibition of human recombinant MAO-B expressed in baculovirus infected BTI-TN-5B1-4 insect cells using benzylamine as substrate preincubated for 1 hr followed by substrate addition and measured after 30 mins by resazurin dye-based fluorescence assay. Format: cell-based.
Regarding `C[C@H](Cc1ccc(OCc2ccc3ccccc3c2)cc1)N(C)CC(=O)O`, the IC50 is 14.2 µM.

As to `C[C@H](Cc1ccc(OCc2cccnc2)cc1)N(C)CC(=O)O`, the IC50 is more than 50 µM.

As for `C#CCN(C)[C@H](C)Cc1ccc(OCc2ccccc2)cc1`, the IC50 was determined as 0.005 µM.

As to `CN(CC(=O)O)[C@H](CC#N)Cc1ccc(OCc2ccccc2)cc1`, the IC50 was determined as 0.532 µM.

As to `C[C@H](Cc1ccc(OCc2cc(Cl)ccc2Cl)cc1)N(C)CC(=O)O`, the concentration for half-maximal inhibition (IC50) amounted to 1.38 µM.

For the compound `C[C@H](Cc1ccc(OCc2ccc(Cl)cc2)cc1)N(C)CC(=O)O`, the IC50 is 0.864 µM.

Consider `COC(=O)[C@H](Cc1ccc(OCc2cccc(Cl)c2)cc1)N(C)CC(=O)O`, for which the IC50 was 1.26 µM.

Turning to `COc1cccc(COc2ccc(C[C@@H](C)N(C)CC(=O)O)cc2)c1`, the IC50 turned out to be 2.11 µM.

As to `C[C@H](Cc1ccc(OCc2cccc(C#N)c2)cc1)N(C)CC(=O)O`, the concentration for half-maximal inhibition (IC50) amounted to 21.3 µM.

As to `C[C@H](Cc1ccc(OCc2ccncc2)cc1)N(C)CC(=O)O`, the half-maximal inhibitory concentration (IC50) turned out to be 22 µM.

In the case of `C[C@H](Cc1ccc(OCc2cccc([N+](=O)[O-])c2)cc1)N(C)CC(=O)O`, the IC50 worked out at 4.37 µM.
